Values joined by “and” are separate entries in the source; they are usually repeats but may differ in a detail not shown here. Equal entries are not always repeated. Toxic doses and inconclusive results are not listed. Cut-off read from the data, not from the text of the source: active = T/C of 150% or more; inactive = T/C below 125%.
Test system: L1210 leukemia ip in BDF1 mice, survival T/C
Test: NCI In Vivo Anticancer Drug Screen. Data for tumor model L1210 Leukemia (intraperitoneal) in B6D2F1 (BDF1) mice
Details: higher = longer survival
In short: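 In this screen, tumor-bearing mice given compound are compared to those given vehicle, and their survival values are reported as a treated-to-control quotient.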

[1] = endpoint: mean survival time, dose: 100.0 mg/kg/injection, schedule: Q01DX009 (ip), vehicle: saline
[2] = endpoint: mean survival time, dose: 100.0 mg/kg/injection, schedule: Q04DX003 (ip), vehicle: saline
[3] = endpoint: mean survival time, dose: 200.0 mg/kg/injection, schedule: Q01DX009 (ip), vehicle: saline
[4] = endpoint: mean survival time, dose: 200.0 mg/kg/injection, schedule: Q04DX003 (ip), vehicle: saline
[5] = endpoint: mean survival time, dose: 400.0 mg/kg/injection, schedule: Q01DX009 (ip), vehicle: saline
[6] = endpoint: mean survival time, dose: 400.0 mg/kg/injection, schedule: Q04DX003 (ip), vehicle: saline
[7] = endpoint: mean survival time, dose: 100.0 mg/kg/injection, schedule: Q04DX003 (ip), vehicle: saline with Tween-80
[8] = endpoint: mean survival time, dose: 50.0 mg/kg/injection, schedule: Q04DX003 (ip), vehicle: Klucel (hydroxypropylcellulose) (HPC)
[9] = endpoint: mean survival time, dose: 100.0 mg/kg/injection, schedule: Q04DX003 (ip), vehicle: Klucel (hydroxypropylcellulose) (HPC)
[10] = endpoint: mean survival time, dose: 200.0 mg/kg/injection, schedule: Q04DX003 (ip), vehicle: Klucel (hydroxypropylcellulose) (HPC)
[11] = endpoint: mean survival time, dose: 25.0 mg/kg/injection, schedule: Q04DX003 (ip), vehicle: Klucel (hydroxypropylcellulose) (HPC)
[12] = endpoint: mean survival time, dose: 100.0 mg/kg/injection, schedule: Q04DX003 (ip), vehicle: other

Measured: T/C

OC1OC2COC(c3ccccc3)OC2C(O)C1O (stereo not given)
inactive: endpoint: median survival time, dose: 25.0 mg/kg/injection, schedule: Q01DX009 (ip), vehicle: water 106 % of control | endpoint: median survival time, dose: 50.0 mg/kg/injection, schedule: Q01DX009 (ip), vehicle: water 106 % of control | endpoint: median survival time, dose: 100.0 mg/kg/injection, schedule: Q01DX009 (ip), vehicle: water 97 % of control | endpoint: median survival time, dose: 200.0 mg/kg/injection, schedule: Q01DX009 (ip), vehicle: water 100 % of control | endpoint: median survival time, dose: 400.0 mg/kg/injection, schedule: Q01DX009 (ip), vehicle: water 101 % of control | endpoint: median survival time, dose: 800.0 mg/kg/injection, schedule: Q01DX009 (ip), vehicle: water 96 % of control

NC(CNO)C(=O)O (stereo not given)
inactive: [1] 101 % of control | [2] 103 % of control | [3] 103 % of control | [4] 97 % of control | [5] 110 % of control | [6] 111 % of control

CC(=O)OCC(OC(C)=O)C(OC(C)=O)C(OC(C)=O)C(OC(C)=O)C(C=O)OC(C)=O (stereo not given)
inactive: [7] 92 % of control | endpoint: mean survival time, dose: 200.0 mg/kg/injection, schedule: Q04DX003 (ip), vehicle: saline with Tween-80 95 % of control | endpoint: mean survival time, dose: 400.0 mg/kg/injection, schedule: Q04DX003 (ip), vehicle: saline with Tween-80 106 % of control

C=CCOCCO
inactive: [1] 108 % of control | [2] 100 % of control | [3] 108 % of control | [4] 95 % of control | [5] 101 % of control | [6] 100 % of control

O=C1COC(=O)N1
inactive: [1] 100 % of control | [3] 100 % of control | [5] 100 % of control

CCOC(=O)n1cnc2nc(N)nc(SC)c21
inactive: endpoint: mean survival time, dose: 50.0 mg/kg/injection, schedule: Q01DX001 (ip), vehicle: saline 103 % of control | endpoint: mean survival time, dose: 100.0 mg/kg/injection, schedule: Q01DX001 (ip), vehicle: saline 97 % of control | endpoint: mean survival time, dose: 200.0 mg/kg/injection, schedule: Q01DX001 (ip), vehicle: saline 100 % of control | endpoint: mean survival time, dose: 400.0 mg/kg/injection, schedule: Q01DX001 (ip), vehicle: saline 122 % of control

COc1ccc2nc(N=Nc3c(N)nc(N)[nH]c3=O)sc2c1
inactive: [8] 102 % of control | endpoint: mean survival time, dose: 100.0 mg/kg/injection, schedule: Q01DX001 (ip), vehicle: carboxymethylcellulose (CMC) 106 % of control | [9] 104 % of control | endpoint: mean survival time, dose: 200.0 mg/kg/injection, schedule: Q01DX001 (ip), vehicle: carboxymethylcellulose (CMC) 106 % of control | [10] 101 % of control | endpoint: mean survival time, dose: 400.0 mg/kg/injection, schedule: Q01DX001 (ip), vehicle: carboxymethylcellulose (CMC) 101 % of control

COc1ccccc1N=Nc1ccc(O)c(C(=O)O)c1
inactive: [9] 102 % of control | [10] 103 % of control

CCOC(=O)NC1=C(N2CC2C)C(=O)C(NC(=O)OCC)=C(N2CC2C)C1=O (stereo not given)
inactive: endpoint: mean survival time, dose: 0.93 mg/kg/injection, schedule: Q01DX009 (ip), vehicle: Klucel (hydroxypropylcellulose) (HPC) 94 % of control and 100 % of control | endpoint: mean survival time, dose: 1.87 mg/kg/injection, schedule: Q01DX009 (ip), vehicle: Klucel (hydroxypropylcellulose) (HPC) 97 % of control and 107 % of control | endpoint: mean survival time, dose: 3.12 mg/kg/injection, schedule: Q04DX003 (ip), vehicle: Klucel (hydroxypropylcellulose) (HPC) 106 % of control | endpoint: mean survival time, dose: 3.75 mg/kg/injection, schedule: Q01DX009 (ip), vehicle: Klucel (hydroxypropylcellulose) (HPC) 98 % of control and 100 % of control | endpoint: mean survival time, dose: 6.25 mg/kg/injection, schedule: Q04DX003 (ip), vehicle: Klucel (hydroxypropylcellulose) (HPC) 95 % of control | endpoint: mean survival time, dose: 7.5 mg/kg/injection, schedule: Q01DX009 (ip), vehicle: Klucel (hydroxypropylcellulose) (HPC) 102 % of control and 91 % of control | endpoint: mean survival time, dose: 12.5 mg/kg/injection, schedule: Q04DX003 (ip), vehicle: Klucel (hydroxypropylcellulose) (HPC) 106 % of control | endpoint: mean survival time, dose: 15.0 mg/kg/injection, schedule: Q01DX009 (ip), vehicle: Klucel (hydroxypropylcellulose) (HPC) 91 % of control | [11] 112 % of control | [8] 110 % of control

CCN(CCS)Cc1ccccc1
inactive: endpoint: mean survival time, dose: 25.0 mg/kg/injection, schedule: Q01DX009 (ip), vehicle: saline with Tween-80 95 % of control | endpoint: mean survival time, dose: 25.0 mg/kg/injection, schedule: Q04DX003 (ip), vehicle: saline with Tween-80 94 % of control | endpoint: mean survival time, dose: 50.0 mg/kg/injection, schedule: Q01DX009 (ip), vehicle: saline with Tween-80 97 % of control | endpoint: mean survival time, dose: 50.0 mg/kg/injection, schedule: Q04DX003 (ip), vehicle: saline with Tween-80 91 % of control | endpoint: mean survival time, dose: 100.0 mg/kg/injection, schedule: Q01DX009 (ip), vehicle: saline with Tween-80 95 % of control | [7] 91 % of control

CCOC(=O)Cc1ccc([N+](=O)[O-])cc1
inactive: [11] 94 % of control | [8] 105 % of control | [9] 104 % of control and 105 % of control | endpoint: mean survival time, dose: 150.0 mg/kg/injection, schedule: Q04DX003 (ip), vehicle: Klucel (hydroxypropylcellulose) (HPC) 107 % of control | endpoint: mean survival time, dose: 225.0 mg/kg/injection, schedule: Q04DX003 (ip), vehicle: Klucel (hydroxypropylcellulose) (HPC) 100 % of control

c1ccc(Nc2c3ccccc3nc3ccccc23)cc1
inactive: [12] 115 % of control

Cc1ccc(CC2=NC(C)(C)CC(C)O2)cc1 (stereo not given)
inactive: endpoint: mean survival time, dose: 100.0 mg/kg/injection, schedule: Q04DX002 (ip), vehicle: saline 101 % of control | endpoint: mean survival time, dose: 200.0 mg/kg/injection, schedule: Q04DX002 (ip), vehicle: saline 93 % of control | endpoint: mean survival time, dose: 400.0 mg/kg/injection, schedule: Q04DX002 (ip), vehicle: saline 106 % of control

COc1ccc(C(N)=O)cc1
inactive: endpoint: mean survival time, dose: 100.0 mg/kg/injection, schedule: Q04DX002 (ip), vehicle: saline with Tween-80 94 % of control | endpoint: mean survival time, dose: 200.0 mg/kg/injection, schedule: Q04DX002 (ip), vehicle: saline with Tween-80 94 % of control | endpoint: mean survival time, dose: 400.0 mg/kg/injection, schedule: Q04DX002 (ip), vehicle: saline with Tween-80 109 % of control

O=[N+]([O-])/C=C/c1cccs1
inactive: endpoint: mean survival time, dose: 100.0 mg/kg/injection, schedule: Q01DX001 (ip), vehicle: Klucel (hydroxypropylcellulose) (HPC) 98 % of control | endpoint: mean survival time, dose: 200.0 mg/kg/injection, schedule: Q01DX001 (ip), vehicle: Klucel (hydroxypropylcellulose) (HPC) 103 % of control

CCOC(=O)C(CCN1CCCCC1)c1cccc2ccccc12 (stereo not given)
inactive: [9] 100 % of control | [10] 88 % of control

C[N+]1(CCC[N+]2(C)CC3CC=CCC3C2)CCOCC1 (stereo not given)
inactive: [2] 92 % of control | [4] 92 % of control | [6] 92 % of control

O=S1(=O)C=C2CCCCC21 (stereo not given)
inactive: endpoint: mean survival time, dose: 75.0 mg/kg/injection, schedule: Q01DX001 (ip), vehicle: carboxymethylcellulose (CMC) 100 % of control

Cc1cc([P+](c2ccccc2)(c2ccccc2)c2ccccc2)c(C)cc1[P+](c1ccccc1)(c1ccccc1)c1ccccc1
inactive: endpoint: mean survival time, dose: 0.37 mg/kg/injection, schedule: Q04DX003 (ip), vehicle: Klucel (hydroxypropylcellulose) (HPC) 96 % of control | endpoint: mean survival time, dose: 0.75 mg/kg/injection, schedule: Q04DX003 (ip), vehicle: Klucel (hydroxypropylcellulose) (HPC) 106 % of control | endpoint: mean survival time, dose: 1.5 mg/kg/injection, schedule: Q04DX003 (ip), vehicle: Klucel (hydroxypropylcellulose) (HPC) 93 % of control | endpoint: mean survival time, dose: 3.0 mg/kg/injection, schedule: Q04DX003 (ip), vehicle: Klucel (hydroxypropylcellulose) (HPC) 91 % of control

CC(CC(=O)C(F)(F)F)=NCC(C)N=C(C)CC(=O)C(F)(F)F (stereo not given)
inactive: endpoint: mean survival time, dose: 100.0 mg/kg/injection, schedule: Q01DX001 (ip), vehicle: other 101 % of control | [12] 115 % of control | endpoint: mean survival time, dose: 200.0 mg/kg/injection, schedule: Q01DX001 (ip), vehicle: other 86 % of control | endpoint: mean survival time, dose: 200.0 mg/kg/injection, schedule: Q04DX003 (ip), vehicle: other 105 % of control | endpoint: mean survival time, dose: 400.0 mg/kg/injection, schedule: Q01DX001 (ip), vehicle: other 97 % of control | endpoint: mean survival time, dose: 400.0 mg/kg/injection, schedule: Q04DX003 (ip), vehicle: other 111 % of control

O=C1NC(CCl)(CCl)CO1
inactive: endpoint: mean survival time, dose: 0.5 mg/kg/injection, schedule: Q01DX001 (ip), vehicle: saline 94 % of control | endpoint: mean survival time, dose: 1.0 mg/kg/injection, schedule: Q01DX001 (ip), vehicle: saline 94 % of control | endpoint: mean survival time, dose: 2.0 mg/kg/injection, schedule: Q01DX001 (ip), vehicle: saline 105 % of control
